How the values were obtained:
[1] = Pectin / calcium acetate supplementation in human males: body weight and BMI; type: in vivo
From the text: The acetate supplement (phase 2), however, caused a decrease (from 88.16±12.35 kg to 83.09±10.80 kg) in body weight. Although this decrease may not be of statistical significance, it can be clinically significant in the cases of those subjects who lost weight.

[2] = Supplementation in human males: haemorheological variables (haematocrit, haemoglobin, plasma viscosity); type: in vivo; settings: for VISCOSITY: plasma
Protocol: (§1) The respective effects of pectin and an acetate when administered to the colon of a mammal were determined during a first experiment. The experiment was conducted in the following two phases: [drawing 1]
(§2) Twenty human males participated in the experimentation and these subjects were not on any medication for any chronic diseases at the time, and also had no history of cardiovascular disease. All the subjects were at the time following a relatively high fibre, low fat diet. During the first phase ten subjects consumed a total of 15 grams of pectin per day in four aliquots, while the other ten consumed a total of 15 grams of placebo (starch) per day in four aliquots.
(§3) During the second phase, the first group consumed a total of 7.5 grams of calcium acetate per day in four aliquots and the second group consumed a total of 15 grams of pectin per day in four aliquots. The calcium acetate was administered in capsules which were coated with a protective coating comprising a resin known commercially as shellac. This protective coating is resistant to digestion and solution in the stomach and small intestines, is but not resistant to the enzymes of the organisms usually found in the colon, so that the calcium acetate was thus released in the colon.
(§4) Blood samples where taken from the subjects after each phase and a large number of variables where tested.

fibrin clot = assay: Supplementation in human males: haemostatic variables and characteristics of fibrin networks developed in plasma; type: in vivo; settings: for CLOT (FIBRIN): clot fibrin content; for LYSIS TIME (t 50%): clot; for COMPACTION: fibrin clot; for MPC: macromolecular protein complex; for μ,: mass length ratio from turbidity; for FIBRINOGEN: plasma
Protocol: as §1, §2, §3, §4

blood lipids = assay: Supplementation in human males: lipid variables; type: in vivo; settings: for TC: total cholesterol; for TG: triglycerides
Protocol: as §1, §2, §3, §4

[3] = Supplementation in human males: metabolic variables; settings: for FFA: free fatty acids; for IR: insulin resistance; for TP: total protein
Protocol: as §1, §2, §3, §4

[4] = Pectin / calcium acetate supplementation in human males: body weight and BMI; type: in vivo; remark: listed apart in the source
[5] = phase 2, end of supplementation (pectin 15 g/day; calcium acetate 7.5 g/day)
[6] = phase 1, end of supplementation (pectin 15 g/day)

Substance: pectin
- BMI ([1]; phase 2, baseline): 29.46 kg/m^2
- BODY WEIGHT ([1]; phase 2, baseline): 92.07 kg
- BMI [1, 5]: 29.32 kg/m^2
- BODY WEIGHT [1, 5]: 91.55 kg
- HAEMATOCRIT ([2]; phase 1, baseline): 48.70%
- HAEMOGLOBIN ([2]; phase 1, baseline): 10.30 mmol/L
- HAEMATOCRIT [2, 6]: 48.10%
- HAEMOGLOBIN [2, 6]: 9.60 ± mmol/l
- HAEMATOCRIT ([2]; phase 2, baseline): 47.38%
- HAEMOGLOBIN ([2]; phase 2, baseline): 10.82 mmol/L
- HAEMATOCRIT [2, 5]: 45.39%
- HAEMOGLOBIN [2, 5]: 9.75 ± mmol/l
- VISCOSITY ([2]; phase 1, baseline): 1.81 cP
- VISCOSITY [2, 6]: 1.60 ± cP
- VISCOSITY ([2]; phase 2, baseline): 1.75 cP
- VISCOSITY [2, 5]: 1.62 ± cP
- CLOT (FIBRIN) (fibrin clot; phase 1, baseline): 2.22 g/L
- CLOT (FIBRIN) (fibrin clot; [6]): 1.90 ± g/l
- CLOT (FIBRIN) (fibrin clot; phase 2, baseline): 2.55 g/L
- CLOT (FIBRIN) (fibrin clot; [5]): 1.86 ± g/l
- LYSIS TIME (t 50%) (fibrin clot; phase 1, baseline): 285.6
- LYSIS TIME (t 50%) (fibrin clot; [6]): 232.9 ±
- LYSIS TIME (t 50%) (fibrin clot; phase 2, baseline): 285.6
- LYSIS TIME (t 50%) (fibrin clot; [5]): 132.9 ±
- COMPACTION (fibrin clot; phase 1, baseline): 21.51%
- COMPACTION (fibrin clot; [6]): 30.16 ± %
- COMPACTION (fibrin clot; phase 2, baseline): 20.67%
- COMPACTION (fibrin clot; [5]): 31.53 ± %
- MPC (fibrin clot; phase 1, baseline): 0.1218 g/L
- MPC (fibrin clot; [6]): 0.0836 ± g/l
- MPC (fibrin clot; phase 2, baseline): 0.1002 g/L
- MPC (fibrin clot; [5]): 0.0807 ± g/l
- μ, (fibrin clot; phase 1, baseline): 19.94 Dal/cm × 10^12
- μ, (fibrin clot; [6]): 24.80 ± Dal/cm × 10^12
- μ, (fibrin clot; phase 2, baseline): 19.02 Dal/cm × 10^12
- μ, (fibrin clot; [5]): 32.10 ± Dal/cm × 10^12
- FIBRINOGEN (fibrin clot; phase 1, baseline): 3.51 g/L
- FIBRINOGEN (fibrin clot; [6]): 3.30 g/L
- FIBRINOGEN (fibrin clot; phase 2, baseline): 4.11 g/L
- FIBRINOGEN (fibrin clot; [5]): 3.72 g/L
- decrease in hydrogen peroxide (free radical) content of blood lipids (blood lipids; pectin supplementation): 49%
- % HDL-C (blood lipids; phase 1, baseline): 18.30%
- ApoA (blood lipids; phase 1, baseline): 1.60 mmol/L
- ApoB (blood lipids; phase 1, baseline): 1.70 mmol/L
- HDL-C (blood lipids; phase 1, baseline): 1.20 mmol/L
- LDL-C (blood lipids; phase 1, baseline): 4.70 mmol/L
- TBARM (blood lipids; phase 1, baseline): 0.60 µM
- hydrogen peroxide (H2O2) (blood lipids; phase 1, baseline): 1.70 µM
- % HDL-C (blood lipids; [6]): 18.20 ± %
- ApoA (blood lipids; [6]): 1.23 ± mmol/l
- ApoB (blood lipids; [6]): 1.29 ± mmol/l
- HDL-C (blood lipids; [6]): 1.03 ± mmol/l
- LDL-C (blood lipids; [6]): 4.10 ± mmol/l
- TBARM (blood lipids; [6]): 0.30 µM
- hydrogen peroxide (H2O2) (blood lipids; [6]): 0.84 ± μM
- % HDL-C (blood lipids; phase 2, baseline): 15.46%
- ApoA (blood lipids; phase 2, baseline): 1.53 mmol/L
- ApoB (blood lipids; phase 2, baseline): 1.77 mmol/L
- HDL-C (blood lipids; phase 2, baseline): 0.92 mmol/L
- LDL-C (blood lipids; phase 2, baseline): 5.17 mmol/L
- TBARM (blood lipids; phase 2, baseline): 2.06 µM
- hydrogen peroxide (H2O2) (blood lipids; phase 2, baseline): 1.20 µM
- % HDL-C (blood lipids; [5]): 18.79 ± %
- ApoA (blood lipids; [5]): 1.39 ± mmol/l
- ApoB (blood lipids; [5]): 1.39 ± mmol/l
- HDL-C (blood lipids; [5]): 1.13 ± mmol/l
- LDL-C (blood lipids; [5]): 4.59 mmol/L
- TBARM (blood lipids; [5]): 0.61 ± μM
- hydrogen peroxide (H2O2) (blood lipids; [5]): 0.73 ± μM
- TC (blood lipids; phase 1, baseline): 6.50 mmol/L
- TC (blood lipids; [6]): 5.67 ± mmol/l
- TC (blood lipids; phase 2, baseline): 6.89 mmol/L
- TC (blood lipids; [5]): 6.07 mmol/L
- TG (blood lipids; phase 1, baseline): 2.00 mmol/L
- TG (blood lipids; [6]): 1.78 mmol/L
- TG (blood lipids; phase 2, baseline): 1.99 mmol/L
- TG (blood lipids; [5]): 1.78 mmol/L
- FFA ([3]; phase 1, baseline): 0.39 mmol/L
- FFA [3, 6]: 0.31 ± mmol/l
- FFA ([3]; phase 2, baseline): 0.48 mmol/L
- FFA [3, 5]: 0.40 ± mmol/l
- IR ([3]; phase 1, baseline): 4.29
- IR [3, 6]: 4.16
- IR ([3]; phase 2, baseline): 9.40
- IR [3, 5]: 5.77
- ALBUMIN ([3]; phase 1, baseline): 47.23 g/L
- GLUCOSE ([3]; phase 1, baseline): 3.98 mmol/L
- INSULIN ([3]; phase 1, baseline): 10.95 μU/ml
- PPA/ALB ([3]; phase 1, baseline): 8.26 × 10^1
- ALBUMIN [3, 6]: 47.79 g/L
- GLUCOSE [3, 6]: 3.72 mmol/L
- INSULIN [3, 6]: 11.25 μU/ml
- PPA/ALB [3, 6]: 6.49 ± × 10^1
- ALBUMIN ([3]; phase 2, baseline): 45.53 g/L
- GLUCOSE ([3]; phase 2, baseline): 4.29 mmol/L
- INSULIN ([3]; phase 2, baseline): 18.55 μU/ml
- PPA/ALB ([3]; phase 2, baseline): 10.50 × 10^1
- ALBUMIN [3, 5]: 45.48 ± g/l
- GLUCOSE [3, 5]: 4.00 mmol/L
- INSULIN [3, 5]: 13.83 μU/ml
- PPA/ALB [3, 5]: 8.78 ± × 10^1
- TP ([3]; phase 1, baseline): 60.55 g/L
- TP [3, 6]: 66.84 g/L
- TP ([3]; phase 2, baseline): 72.36 g/L
- TP [3, 5]: 75.21 g/L
- weight reduction ([4]; pectin supplemented subject group): No weight reduction
- BMI ([4]; phase 1, baseline): 27.50 kg/m^2
- BODY WEIGHT ([4]; phase 1, baseline): 89.50 kg
- BMI [4, 6]: 27.40 kg/m^2
- BODY WEIGHT [4, 6]: 89.10 kg
